The subject of this experiment is GLI1-driven reporter activity mediated by exogenous SHH (Shh-light2 cells). Briefly: GLI-dependent firefly luciferase reporter assay in Shh-light2 cells treated with SHH. The experiment is classed as cell-based. The settings on record: AKI0532 5, 2.5 or 1 μM in DMSO, alone (−SHH) or with SHH (+SHH), 2 days, FIG. 1. The method, then: Shh-light2 cells (3T3 clone stably transfected with a GLI-dependent firefly luciferase plasmid) were treated with carrier DMSO as control or AKI0532 (5, 2.5, or 1 μM in DMSO) either alone (−SHH) or in combination with SHH (+SHH) for 2 days.
For example, AKI0532 analogs shown in Table 1 can be subjected to a battery of tests that are commonly used to assess effects on SHH activity and to determine specificity. As exemplified herein for AKI0532, one screen involves examining the activation of the SHH pathway using the well-established cell line, SHH-Light2 cells. This cell line is a 3T3 clone that stably expresses a GLI-dependant firefly luciferase (Taipale, et al. (2000) Nature 406:1005-1009). […] Concentrations of each compound, ranging from 20 μM to 1 μM, can be tested. SHH-Light2 cells are seeded 24 hours prior to treatment. They were then cultured for an additional 48 hours in standard serum-containing media prior to analysis. GLI-binding site luciferase activities are measured using a commercially available luciferase reporter assay system. Treatment of SHH-Light2 cells with recombinant SHH (200 ng) results in strong induction of reporter activity. IC50 values are determined and are compared to that of AKI0532 in the same assay in order to assess which of the AKI0532 analogs have the highest levels of SHH inhibitory activity.
Background: Reporter assays use an easily measured gene product as a stand-in for the process of interest.

Molecules are shown by their SMILES.

With `C[C@]12CCC(c3ccc(O)cc3)=CC1=CC[C@@]21Cc2ncccc2O1` [AKI0532], the “GLI1-driven reporter activity mediated by exogenous SHH” value is given as “inhibits GLI1-driven reporter activity mediated by exogenous SHH”.
